# Test results reported in US9980966B2, “Combinations of cancer therapeutics” (Merck Patent GmbH, priority 2014, dated 2018).
# What was measured:
# [1] = test system: broad panel of cancer cell lines; assay: Anti-tumor activity of the single agent in a panel of cancer cell lines; type: cell-based
# Procedure: The cell lines were grown in the media recommended by the suppliers in the presence of 100 U/ml penicillinG and 100 μg/ml streptomycin supplied with 10% FCS (PAN, Germany).
# Cell growth and treatment were performed in 96-well microtitre plates. Cells harvested from exponential phase cultures by trypsinization were plated in 190 μl of media at optimal seeding densities. The optimal seeding densities for each cell line were determined to ensure exponential growth for the duration of the experiment. All cells growing without anticancer agents were sub-confluent by the end of the treatment as determined by visual inspection. Compound dilutions in DMSO were performed in 96-well rigid PCR plates. Compounds were then diluted […] in RPMI medium. 190 μl of cells, after a 24-hour pre-growth period, were treated by mixing with 10 μl of the compound-containing media (resulting in a final DMSO concentration of 0.1%). The cells were allowed to grow at 37° C. for 72 hours. In addition, all experiments contained a few plates with cells that were processed for measurement immediately after the 24 hours recovery period. These plates contained information about the cell number that existed before treatment, at time zero, and served to calculate the cytotoxicity and/or growth inhibitory effects. […] Measurement of optical density was performed at 560 nm on a Victor 2 plate reader (Perkin Elmer, Germany). […]
# [2] = test system: Her2+ patient-derived breast model "CTG-0033"; assay: Patient derived xenograft model of breast cancer, tumor volume efficacy study; type: in vivo, mice
# Text: Female nude (Harlan; nu/nu) between 5-7 weeks were implanted subcutaneously with tumor fragments from the Her2+ patient-derived breast model “CTG-0033” (passage 3, i.e. the model has been serially passaged/grown from the original host 3 times) harvested from host animals. When host tumors reached 1-1.5 cm^3, tumors were harvested for re-implantation into animals to be used for the efficacy study. When the CTG-0033 (passage 4) tumors reached approximately 190 mm^3; animals were randomized by tumor volume into treatment or control groups (n=10) and dosing was initiated on Day 0. […] Tumor volumes were recorded twice per week. […] The other treatments were stopped at Day 75 and tumors were allowed to grow back for over 2 months with mice receiving no treatment.
smiles,measurement,setting,value
"NC(=O)c1cccc2c(N[C@H](CN3CCC3)c3ccc(Cl)c(C(F)(F)F)c3)ncnc12 [Compound A, 4-[(S)-2-Azetidin-1-yl-1-(4-chloro-3-trifluoromethyl-phenyl)-ethylamino]-quinazoline-8-carboxylic acid amide]",anti-tumor activity against a broad panel of cancer cell lines,[1],potent anti-tumor activity
same,sensitivity of cancer cells to the compound,"[1]; breast cancer cells, glioblastoma cells, endometrial cancer cells and ovarian carcinoma cells",particularly sensitive
same,tumor regression,"[2]; Day 55, Compound A 30 mg/kg QD PO, Herceptin 15 mg/kg QW IV in the combination, CTG-0033 tumors in female nude mice",50%
same,tumor regression,"[2]; Day 76, after treatment until Day 75",−66%
same,number of treated tumors that grew back,"[2]; after 71 days of regrowth period after cessation of treatment, log rank sum test p<0.05",6
